Here are results for 6 molecules from patent US8173595B2, “Methods and compositions for the inhibition of thrombus formation” (The Board of Trustees of the University of Illinois, priority 2004, dated 2012).

Where no end group is shown, it is not given here. [ ]: non-standard residue; d: D form. The star is where a group is joined. Myristoyl = CCCCCCCCCCCCCC(=O)*; pS = N[C@@H](COP(=O)(O)O)C(=O)O

Assay [1] concerns the target T1, 14-3-3 binding to GPIb-IX (Homo sapiens, UniProt P63104).
T1 construct: GPIb-IX: platelet lysate
T1 sequence (P63104 1-245): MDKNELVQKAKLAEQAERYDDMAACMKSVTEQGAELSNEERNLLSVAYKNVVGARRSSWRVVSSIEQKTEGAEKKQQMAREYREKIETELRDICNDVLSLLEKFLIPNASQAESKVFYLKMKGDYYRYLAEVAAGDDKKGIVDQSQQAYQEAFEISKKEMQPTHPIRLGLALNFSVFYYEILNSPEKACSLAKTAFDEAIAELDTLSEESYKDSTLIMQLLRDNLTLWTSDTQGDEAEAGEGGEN
In words: Binding of GPIb-IX from platelet lysates to 14-3-3-conjugated beads (Western blot). The conditions noted are these: recombinant 14-3-3-MBP beads, FIG. 1B. The procedure:
14-3-3 binding to GPIb-IX. Binding of GPIb-IX to 14-3-3-conjugated beads were performed as previously described (Du et al., J. Biol. Chem., 271:7362-7367 (1996)). Briefly, 14-3-3-conjugated Sepharose 4B beads and maltose-binding protein (MBP)-conjugated control beads were preincubated with various concentrations of synthetic peptides at 4° C. for 1 h, and then with platelet lysates for an additional 1 h. The beads were washed three times. Bound GPIb-IX was detected by Western blot with a monoclonal antibody against GPIbα, WM23.
Background: A western blot detects proteins with antibodies after separation by electrophoresis.

In assay [2] the test system is platelets (platelet-rich plasma from healthy donors). Briefly: Ristocetin-induced (vWF-dependent) platelet aggregation in platelet-rich plasma. The format is cell-based, human. How it is done: (§1) Platelet preparation and aggregation. Blood was drawn from healthy donors, and was anti-coagulated with 1/10 volume of 3.8% trisodium citrate. Platelet-rich plasma (PRP) was obtained by centrifugation at 300×g for 20 min at 22° C. Platelet aggregation was measured using a turbidometric platelet aggregometer at 37° C. with a stirring speed at 1000 rpm. To examine the effects of peptides, various concentrations of each peptide was preincubated with platelets at 22° C. for 5 min. In some experiments, intergrin inhibitor RGDS (1 mM) was also added to exclude the roles of β3 integrins.

A further assay can be described thus: Tail-bleeding time. The format is in vivo, C57 black mice. The conditions noted are these: infused into jugular vein, 5 min circulation, compared with MαC or MαCsc, p<0.0001, FIG. 4B. How it is done:
Tail-bleeding time. Bleeding times were performed with 6-8-wk-old adult C57 black mice anesthetized with an intraperitoneal injection of avertin. The internal jugular vein was surgically exposed, and a total volume of 50 μl of a peptide (5 mM) was infused using a 27 G needle. Experiments were performed in a double-blinded fashion. After 5 min, tails were amputated 5 mm from the tail tip, and immersed in a tube containing 0.15M NaCl maintained at 37° C. Bleeding was visually followed and timed. Maximum bleeding time allowed was 10 min after which the tail was cauterized. Statistical differences between the groups were examined using Mann-Whitney test and InStat software.

In another assay the test system is platelet adhesion to vWF. Briefly: Platelet adhesion under flow in vWF-coated glass capillaries. The format is cell-based. The conditions noted are these: washed platelets, in the presence of RGDS, FIG. 4A. The procedure: Platelet adhesion under flow. Washed platelets (3×10^8/ml) were preincubated with various concentrations of synthetic peptides at 22° C. for 10 min, the platelets were perfused into the vWF-coated glass capillaries using a PhD syringe pump (Harvard Apparatus Inc.) at various shear rates for 8 min. Transient adhesion of platelets on the vWF-coated surface was recorded on video cassette recorder. Adherent platelets were counted in 10 randomly selected fields of 0.25 mm^2 within a 10 second time period.

The next assay relates to platelets. Briefly: Botrocetin-induced platelet agglutination. The format is cell-based.
Assay [3] relates to vWF binding to GPIb-IX on washed human platelets. Briefly: Flow cytometry analysis of ristocetin-induced vWF binding to platelets. The assay is classed as cell-based. The conditions noted are these: 10 mM EDTA or RGDS, ristocetin 1 mg/ml, FIG. 3. How it is done: Flow cytometry analysis of VWF binding to platelets. Flow cytometry analysis of vWF binding to platelets has been described previously 8,9. Washed platelets (1.0×10^7/ml) were prepared as described previously (Englund et al., J. Biol. Chem., 276:16952-16959 (2001); Bodnar et al., J. Biol. Chem. 277:47080-47087 (2002)), and resuspended in phosphate-buffered saline (PBS) solution (0.01 M NaH2PO4, 0.15 M NaCl, pH 7.4) containing 10 mM EDTA and 1% BSA. Platelets were preincubated with various concentrations of synthetic peptides at 22° C. for 10 min before incubating with purified vWF (35 μg/ml) and ristocetin (1.0 mg/ml) at 22° C. for 30 min. Platelets were washed once, further incubated in the same buffer containing 10 μg/ml FITC-labeled SZ-29 in the dark at 22° C. for 30 min and then analyzed by flow cytometry. As negative controls, platelets were incubated in the presence of ristocetin alone then incubated with FITC-labeled SZ29.

Assay [4] deals with platelets (platelet-rich plasma). In words: Platelet aggregation induced by ADP, collagen or thromboxane A2 analog U46619. The format is cell-based, human. The conditions noted are these: collagen, thromboxane A2 analog U46619, FIGS. 2C, 2D, 2E. The procedure: as §1
The test system of assay [5] is GPIb-IX-dependent platelet agglutination. In words: Ristocetin-induced GPIb-IX-specific platelet agglutination in the presence of RGDS. The format is cell-based, human. The conditions noted are these: PRP, in the presence of 1 mM RGDS, ristocetin 1.25 mg/ml, FIG. 2A, 2B. How it is done: as §1

Take “C13H27CONH-LSISYGSHR (Myristoyl-LSISYGSHR) [MαCsc, myristoylated scrambled control peptide]”: the “binding of GPIb-IX to 14-3-3 beads” value in assay [1] is “not”. For the same molecule, in assay [2] (PRP, 100 μM, FIG. 1D, 1E), the ristocetin-induced platelet aggregation result was “no significant effect”.

In the case of “C13H27CONH-SIRYSGHSL (Myristoyl-SIRYSGHSL) [MαC]”, the “binding of GPIb-IX to 14-3-3 beads” value in assay [1] was “not”. For the same molecule, the ristocetin-induced platelet aggregation result in assay [2] (PRP, 100 μM, FIG. 1D, 1E) was “no significant effect”.

Take “C13H27CONH-SIRYSGHpSL (Myristoyl-SIRYSGH[pS]L) [MPαC]”: in assay [1], the “binding of GPIb-IX to 14-3-3 beads” value was “abolished”. The “median tail bleeding time” value in “Tail-bleeding time” was “significantly prolonged”. In addition, the “adhesion of platelets on vWF surface under flow” value with platelet adhesion to vWF is “almost no adhesion”. In the assay with platelets, the botrocetin-induced platelet agglutination entry is “inhibited”. The “ristocetin-induced vWF binding to platelets” value in assay [3] is on record as “inhibited”. In addition, the “platelet aggregation induced by platelet agonists” value in assay [4] is “no inhibitory effect”. In assay [2] (PRP preincubated with increasing concentrations of peptide, FIG. 1C), the “vWF-dependent platelet aggregation induced by ristocetin” value was “dose-dependently inhibited”. In addition, the ristocetin-induced platelet agglutination result in assay [5] is recorded as “completely inhibited”.

As for “C13H27CONH-SIRYSGHDL (Myristoyl-SIRYSGHDL) [MSDαC, myristoylated peptide replacing phosphorylated serine 609 with aspartic acid to simulate phosphoserine]”, the ristocetin-induced platelet aggregation result in assay [2] (PRP preincubated at room temperature for 5 min, FIG. 5) is listed as “completely inhibited”.

With SIRYSGHpSL [PαC], the ristocetin-induced platelet aggregation result in assay [2] (PRP, 100 μM, FIG. 1D, 1E) is “no effect”.

For the molecule `CCCCCCCCCCCCCC(=O)OC(=O)CCCCCCCCCCCCC` [myristic anhydride (MA), myristic anhydride], in assay [2] (PRP, 100 μM, FIG. 1D, 1E), the ristocetin-induced platelet aggregation entry is recorded as “no effect”.
